Test results published in patent US8614236B2 (University of Washington, priority 2006, dated 2013).

Assays:
[1] = test system: Beagle dogs; experiment: Dog study: arterial blood gases, ventilation and acid-base status in normoxia and hypoxia; type: in vivo; details: po 5 mg/kg 12 and 1 hr before; hypoxia 3rd h
[2] = test system: PASMCs; experiment: Changes in membrane potential (Em) in PASMCs, DiBAC4(3) fluorescence; type: cell-based, rat; details: 100 μM
Protocol: The method for obtaining single PASMCs has been described previously in Shimoda L. A., et al., Am J Physiol 274: 842-853 (1998), which is hereby incorporated by reference in its entirety. Intrapulmonary arteries (200-600 μm o.d.) were isolated from male Wistar rats (250-350 g) and cleaned of connective tissue. After the lumen was gently rubbed with a cotton swab to remove the endothelial cells, the arteries were allowed to recover for 30 minutes in cold (4° C.) HBSS containing (in mM): 130 NaCl, 5 KCl, 1.2 MgCl2, 1.5 CaCl2, 10 N-[2-hydroxyethyl]piperazine-N′-[2-ethanesulfonic acid] (HEPES) and 10 glucose, with pH adjusted to 7.2 with 5 M NaOH, followed by 20 minutes in reduced-Ca^2+ (20 μM CaCl2) HBSS at room temperature. The tissue was enzymatically digested in reduced-Ca^2+ HBSS containing collagenase (type I; 1750 U/ml), papain (9.5 U/ml), bovine serum albumin (2 mg/ml) and dithiothreitol (1 mM) at 37° C. for 20 minutes. Following digestion, single smooth muscle cells were dispersed by gentle trituration with a wide-bore transfer pipette in Ca^2+-free HBSS and the cell suspension was placed on 25 mm glass cover slips. PASMCs were transiently cultured in Ham's-F-12 media supplemented with 0.5% fetal bovine serum and 1% penicillin/streptomycin for 24-48 hrs. before study.
Changes in membrane potential were measured using the fluorescence dye, DiBAC4(3), which was excited at 490 nm and detected at 510 nm. Cells were loaded by continuous perfusion with Kreb's solution containing 500 nM DiBAC4(3) and were perfused for at least 15 minutes before beginning measurements to insure stable uptake of dye. Baseline DiBAC4(3) fluorescence was monitored for 5 minutes with control Kreb's, followed by 10 minutes with Kreb's in the presence or absence of AZ (100 μM). At the end of this period, cells were challenged with KCl (60 mM) or endothelin-1 (ET-1) (10^−8 M). Since DiBAC4(3) is a single wavelength dye, any change in the concentration of the dye in the perfusion medium (i.e., differing concentrations between perfusion reservoirs) could result in a change in fluorescence that is not due to a change in membrane potential. To minimize the possibility of this type of error, all experiments were performed using inflow from a single reservoir into which AZ, KCl or ET-1 were dissolved directly.
AZ has recently been proposed to alter the activation of Ca^2+-activated K^+ channels, causing hyperpolarization. See Pickkers P., et al., Br J Pharmacol 132: 443-450 (2001); Tricarico D., et al., Ann Neurol 48: 304-312 (2000); and Tricarico D., et al., Faseb J 18: 760-761 (2004), which are hereby incorporated by reference in their entirety. Since depolarization is believed to contribute to the hypoxia-induced increase in [Ca^2+]i, AZ-induced hyperpolarization could prevent activation of voltage-gated Ca^2+ channels and an increase in [Ca^2+]i in response to hypoxia. In order to test this possibility, the Em-sensitive fluorescent dye, DiBAC4(3) was used. […] Baseline fluorescence was relatively stable over time, decreasing by 4.11±0.4% over 10 minutes (n=90 cells).

CC(=O)Nc1nnc(S(N)(=O)=O)s1 [AZ, acetazolamide]
HCO3a, arterial actual bicarbonate concentration [1]: 16.9 ± 0.5 mM
change in basal DiBAC4(3) fluorescence (basal Em) [2]: −2.86±4.5%
effect on basal Em [2]: no significant effect
increase in DiBAC4(3) fluorescence induced by ET-1 in presence of compound ([2]; ET-1): 66.0±10.4%
increase in DiBAC4(3) fluorescence induced by KCl in presence of compound ([2]; KCl): 53.13±14.8%
